Like-named read-outs stand apart in the source and are kept apart here.
Tested on: Dengue-2 (Strain New Guinea C)
Experiment: Viral yield assay against Dengue-2 in Vero cells
Format: cell-based, Dengue virus
Conditions: Dengue virus
In short: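 Vero cells were infected with dengue virus at an MOI of 0.1, treated with compound or DMSO vehicle, and kept at 37° C. Supernatant virus was harvested 48 hours post infection and titered on Vero cells, with EC50 derived from yield reduction.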

[1] = DENV2, viral yield assay, Vero cells, MOI 0.1, 48 hours post infection, read-out: Activity (EC50 in μM) DENV-2
[2] = Vero, 48 h, read-out: Activity (EC50 class) against Dengue-2 Virus in Vero cells
[3] = Vero cells, MOI 0.1, harvested 48 hours post infection, read-out: Activity (EC50 class) against Dengue-2 Virus in Vero cells

| Compound | EC50 [1] | EC50 [3] | further results |
| --- | --- | --- | --- |
| Nc1c(C(=O)Nc2ccc3c(c2)OCO3)sc2nc(-c3ccc(F)cc3F)ccc12 [Compound 655, 3-amino-N-(1,3-benzodioxol-5-yl)-6-(2,4-difluorophenyl)thieno[2,3-b]pyridine-2-carboxamide] | < 5 µM |  |  |
| Nc1c(C(=O)Nc2ccccc2F)sc2nc(-c3ccc4c(c3)OCO4)ccc12 [Compound 538, 3-amino-6-(1,3-benzodioxol-5-yl)-N-(2-fluorophenyl)thieno[2,3-b]pyridine-2-carboxamide] | < 5 µM |  |  |
| Cc1ccc(-c2ccc3c(N)c(C(=O)Nc4cccc(C)c4)sc3n2)cc1 [Compound 644, 3-amino-N-(m-tolyl)-6-(p-tolyl)thieno[2,3-b]pyridine-2-carboxamide] | < 5 µM |  |  |
| NC(=O)c1sc2nc3c(c(-c4ccco4)c2c1N)CCC3 [Compound 99, 3-Amino-4-furan-2-yl-6,7-dihydro-5H-cyclopenta[b]thieno[3,2-e]pyridine-2-carboxylic acid amide] |  |  | EC50 [2]: 5 to 25 µM |
| Cc1cc(C)c2c(N)c(C(=O)Nc3cccc(C)c3C)sc2n1 [Compound 181, 3-Amino-4,6-dimethyl-thieno[2,3-b]pyridine-2-carboxylic acid (2,3-dimethyl-phenyl)-amide] |  |  | EC50 [2]: > 25 µM |
| CCOC(=O)c1cc(NC(=O)c2sc3nc(C)cc(COC)c3c2N)ccc1Cl [Compound 240, 5-[(3-Amino-4-methoxymethyl-6-methyl-thieno[2,3-b]pyridine-2-carbonyl)-amino]-2-chloro-benzoic acid ethyl ester] |  | > 25 µM |  |
| Cc1cccc(NC(=O)c2sc3nc(N)c(C#N)c(-c4ccc(C(C)C)cc4)c3c2N)c1C [Compound 143, 3,6-Diamino-5-cyano-4-(4-isopropyl-phenyl)-thieno[2,3-b]pyridine-2-carboxylic acid (2,3-dimethyl-phenyl)-amide] |  | > 25 µM |  |
| C=CCn1cnc2c(sc3nc4c(cc32)COC(C)(C)C4)c1=O [Compound 202, 2-Allyl-8,8-dimethyl-8,9-dihydro-2H,6H-7-oxa-11-thia-2,4,10-triaza-benzo[b]fluoren-1-one] |  | > 25 µM |  |
| Cc1ccc2c(N)c(C(=O)Nc3cccc(C(F)(F)F)c3)sc2n1 [Compound 367, 3-amino-6-methyl-N-(3-(trifluoromethyl)phenyl)thieno[2,3-b] pyridine-2-carboxamide] | < 5 µM |  |  |
| Nc1c(C(=O)Nc2nc3ccccc3s2)sc2nc(-c3cccs3)ccc12 [Compound 436, 3-amino-N-(1,3-benzothiaozl-2-yl)-6-(2-thienyl)thieno[2,3-b]pyridine-2-carboxamide] |  |  | EC50 (DENV2, Vero, 48 h, read-out: Activity (EC50 in μM) DENV-2): < 5 µM |
| COCc1cc(C)nc2sc3c(=O)n(-c4ccc(C)cc4C)nnc3c12 [Compound 151, 3-(2,4-Dimethyl-phenyl)-9-methoxymethyl-7-methyl-3H-pyrido[3′,2′:4,5]thieno[3,2-d][1,2,3]triazin-4-one] |  | > 25 µM |  |
| CCN(CC)C(=O)c1sc2nc(C)cc(C)c2c1N [Compound 167, 3-Amino-4,6-dimethyl-thieno[2,3-b]pyridine-2-carboxylic acid diethylamide] |  | > 25 µM |  |
| COc1cccc(-c2ccc3c(N)c(C(=O)Nc4ccc(F)cc4Cl)sc3n2)c1 [Compound 557, 3-amino-N-(2-chloro-4-fluoro-phenyl)-6-(3-methoxyphenyl)thieno[2,3-b] pyridine-2-carboxamide] | < 5 µM |  |  |
| Cc1c(Cl)cccc1NC(=O)c1sc2nc(-c3ccc4c(c3)OCO4)ccc2c1N [Compound 586, 3-amino-6-(1,3-benzodioxol-5-yl)-N-(3-chloro-2-methyl-phenyl)thieno[2,3-b] pyridine-2-carboxamide] | < 5 µM |  |  |
| O=C(Nc1ccc(Cl)cc1)c1sc2ncccc2c1OCc1ccc(Cl)c(Cl)c1 [Compound 376, N-(4-chlorophenyl)-3-[(3,4-dichlorophenyl)methoxy]thieno[2,3-b] pyridine-2-carboxamide] | 5 to 25 µM |  |  |
| COCc1cc(C)nc2sc(C(=O)Nc3ccc(C(=O)OC)cc3)c(N)c12 [Compound 239, 4-[(3-Amino-4-methoxymethyl-6-methyl-thieno[2,3-b]pyridine-2-carbonyl)-amino]-benzoic acid methyl ester] |  |  | EC50 [2]: > 25 µM |
| Nc1c(C(=O)Nc2ccc(Cl)cc2)sc2nc(-c3ccc4c(c3)OCO4)ccc12 [Compound 601, 3-amino-6-(1,3-benzodioxol-5-yl)-N-(4-chlorophenyl)thieno[2,3-b]pyridine-2-carboxamide] | < 5 µM |  |  |
| COc1cccc(-c2ccc3c(N)c(C(=O)Nc4ccc(Br)cc4C)sc3n2)c1 [Compound 549, 3-amino-N-(4-bromo-2-methyl-phenyl)-6-(3-methoxyphenyl)thieno[2,3-b] pyridine-2-carboxamide] | < 5 µM |  |  |
| Cc1nc2sc(C(N)=O)c(N)c2c(C)c1CC(=O)c1ccccc1 [Compound 72, 3-Amino-4,6-dimethyl-5-(2-oxo-2-phenyl-ethyl)-thieno[2,3-b]pyridine-2-carboxylic acid amide] |  |  | EC50 [2]: 5 to 25 µM |
| CCCc1ccc2c(N)c(C(=O)Nc3nc(C(F)(F)F)ccc3Cl)sc2n1 [Compound 73, 3-Amino-6-propyl-thieno[2,3-b]pyridine-2-carboxylic acid (3-chloro-6-trifluoromethyl-pyridin-2-yl)-amide] |  | 5 to 25 µM |  |
| COc1cccc(-c2ccc3c(N)c(C(=O)Nc4ccc5c(c4)OCO5)sc3n2)c1 [Compound 511, 3-amino-N-(1,3-benzodioxol-5-yl)-6-(3-methoxyphenyl)thieno[2,3-b]pyridine-2-carboxamide] | < 5 µM |  |  |
| COc1cccc(-c2ccc3c(N)c(C(=O)Nc4ccccc4C)sc3n2)c1 [Compound 521, 3-amino-6-(3-methoxyphenyl)-N-(o-tolyl)thieno[2,3-b]pyridine-2-carboxamide] | < 5 µM |  |  |
| NC(=O)c1sc2nc(-c3ccccc3)ccc2c1N [Compound 161, 3-Amino-6-phenyl-thieno[2,3-b]pyridine-2-carboxylic acid amide] |  | > 25 µM |  |
| COc1ccccc1C(C)N(C)C(=O)c1sc2nc(C)cc(C)c2c1C (centres unmarked) [Compound 409, N-[1-(2-methoxyphenyl)ethyl]-N,3,4,6-tetramethyl-thieno[2,3-b]pyridine-2-carboxamide] | > 25 µM |  |  |
| CCOc1ccccc1NC(=O)c1sc2nc(-c3ccc(F)cc3)ccc2c1N [Compound 606, 3-amino-N-(2-ethoxyphenyl)-6-(4-fluorophenyl)thieno[2,3-b]pyridine-2-carboxamide] | < 5 µM |  |  |
| Cc1ccc(-c2ccc3c(N)c(C(=O)Nc4ccc(F)cc4)sc3n2)cc1 [Compound 640, 3-amino-N-(4-fluorophenyl)-6-(p-tolyl) thieno[2,3-b]pyridine-2-carboxamide] | < 5 µM |  |  |
| COc1ccccc1-c1cc(-c2ccccc2)c2c(N)c(C(=O)NC3CC3)sc2n1 [Compound 67, 3-Amino-6-(2-methoxy-phenyl)-4-phenyl-thieno[2,3-b]pyridine-2-carboxylic acid cyclopropylamide] |  | 5 to 25 µM |  |
| CCN1CCc2nc3sc(C(=O)Nc4ccccc4OC(F)(F)F)c(N)c3cc2C1 [Compound 40, 3-Amino-6-ethyl-5,6,7,8-tetrahydro-thieno[2,3-b][1,6]naphthyridine-2-carboxylic acid (2-trifluoromethoxy-phenyl)-amide] |  | < 5 µM |  |
| Nc1c(C(=O)Nc2ccccc2OC(F)(F)F)sc2nc(-c3ccncc3)ccc12 [Compound 487, 3-amino-6-(4-pyridyl)-N-[2-(trifluoromethoxy)phenyl]thieno[2,3-b] pyridine-2-carboxamide] | < 5 µM |  |  |

Reference: patent US20170121344A1 (Siga Technologies, Inc., priority 2009, published 2017)
